≈ marks a conversion by molar mass, not a printed value. Read-outs that look alike come from different tables or passages of the source.
Columns and labels:
tubulin = assay: Tubulin polymerization assay; format: biochemical; conditions: chrysophaentin 1 at 150 μM; paclitaxel, nocodazole at standardized concentrations
[1] = tested on: Staphylococcus aureus (SA, ATCC 25923); assay: Agar disk diffusion assay, S. aureus; format: cell-based; conditions: Lowest concentrations leading to 8-10 mm zones of inhibition
Method: (§1) Compounds 1-8 were tested for antimicrobial activity against Staphylococcus aureus (SA, ATCC 25923), methicillin-resistant S. aureus (MRSA, ATCC BAA-41), multidrug-resistant S. aureus (MDRSA, ATCC BAA-44), Enterococcus faecium (EF, ATCC 49032), vancomycin-resistant E. Faecium (VRE, ATCC 700221), and Bacillus subtilis (ATCC 49343) using a modified disk diffusion assay and microbroth liquid dilution assays. For disk diffusion assays, agar plates seeded with suspensions of bacteria were prepared by adding 500 μL of a 24 h culture of bacteria to 100 mL of autoclaved Mueller Hinton II agar and cooled to 55° C. Seeded liquid agar (10 mL) was transferred immediately to square Petri dishes and allowed to cool for 1 h. Control drugs used for each microorganism included kanamycin (50 μg) for S. aureus, and nitrofurantoin (25 μg) for MRSA. Following incubation at 37° C. for 18 h, zones of inhibition were measured. MICso values for compounds 1 and 4-8 were determined using a microbroth dilution assay outlined in the Clinical and Laboratory Standards Institute methods for susceptibility tests for bacteria that grow aerobically. Briefly, single bacterial colonies were used to inoculate 4 mL of Trypticase Soy broth (BD) for overnight growth and inoculum for each were diluted to 5×10^5 CFU/mL using the 0.5 McFarland standard. In a 96 well plate (Costar, round bottom), control antibiotics (oxacillin for SA and MRSA, vancomycin for EF and VRE, chloramphenicol for B. subtilis) or natural product inhibitors were added to Muller Hinton II broth (for S. aureus, MRSA, and B. subtilis) or 10% brain heart infusion broth (for E. faecium and VRE) in the first column of the well plates, and serially diluted across the plate, reserving wells for a positive growth control (no treatment). 10 μL of diluted bacteria were added to all wells with the exception of those kept for broth blanks (MHII or brain heart infusion broth only). Plates were incubated at 37° C. overnight and read at absorbance 600 nm on a Molecular Devices plate reader. Growth curves were plotted and ICso values obtained using Kalidagraph software.

[2] = tested on: Enterococcus faecium (EF, ATCC 49032); assay: Microbroth dilution assay, E. faecium; format: cell-based; conditions: concentration at which growth is reduced by 50%; for MIC50: Enterococcus faecium, ATCC49032, microbroth dilution, read-out: MIC50 (μg/mL) E. faecium
Method: as §1

[3] = tested on: Staphylococcus aureus (SA, ATCC 25923); assay: Microbroth dilution assay, S. aureus; format: cell-based; conditions: for MIC50: Staphylococcus aureus
Method: as §1

[4] = tested on: methicillin-resistant S. aureus (MRSA, ATCC BAA-41); assay: Agar disk diffusion assay, MRSA; format: cell-based, Staphylococcus aureus; conditions: Lowest concentrations leading to 8-10 mm zones of inhibition
Method: as §1

[5] = tested on: methicillin-resistant S. aureus (MRSA, ATCC BAA-41); assay: Microbroth dilution assay, MRSA; format: cell-based, Staphylococcus aureus; conditions: for MIC50: Staphylococcus aureus, read-out: MIC50 (μg/mL) MRSA
Method: as §1

[6] = tested on: vancomycin-resistant E. Faecium (VRE, ATCC 700221); assay: Agar disk diffusion assay, VREF; format: cell-based, Enterococcus faecium; conditions: Lowest concentrations leading to 8-10 mm zones of inhibition
Method: as §1

[7] = tested on: vancomycin-resistant E. Faecium (VRE, ATCC 700221); assay: Microbroth dilution assay, VREF; format: cell-based, Enterococcus faecium; conditions: for MIC50: Enterococcus faecium, read-out: MIC50 (μg/mL) VREF
Method: as §1

[8] = tested on: Gram-positive pathogens (S. aureus, B. subtilis, E. faecium, MRSA, MDRSA, VREF); assay: Disk diffusion and microbroth dilution assays, strains taken together; format: cell-based
Text: Solid agar disk diffusion and microbroth dilution assays were used to evaluate the antimicrobial activities of compounds 1, hexaacetate 1a, and 4-8 toward clinically relevant, Gram-positive pathogens, including the drug-susceptible bacteria Staphylococcus aureus, Bacillus subtilis and Enterococcus faecium, and drug-resistant strains methicillin-resistant S. aureus (MRSA), multidrug-resistant S. aureus (MDRSA), and vancomycin-resistant E. faecium (VREF) (see Table 7, Example 2).
as §1, with “In a 96 well plate (Costar, round bottom), control antibiotics (oxacillin for SA and MRSA, vancomycin for EF and VRE, chloramphenicol for B. subtilis) or natural product inhibitors were added to Muller Hinton II broth (for S. aureus, MRSA, and B. subtilis) or 10% brain heart infusion broth (for E. faecium and VRE) in the first column of the well plates, and serially diluted across the plate, reserving wells for a positive growth control (no treatment). 10 μL of diluted bacteria were added to all wells with the exception of those kept for broth blanks (MHII or brain heart infusion broth only).” left out, “Growth curves were plotted and ICso values obtained using Kalidagraph software.” left out

[9] = tested on: Enterococcus faecium (EF, ATCC 49032); assay: Agar disk diffusion assay, E. faecium; format: cell-based; conditions: Lowest concentrations leading to 8-10 mm zones of inhibition
Method: as §1

[10] = ATCC25923, microbroth dilution, concentration at which growth is reduced by 50%, read-out: MIC50 (μg/mL) S. aureus
[11] = microbroth dilution, concentration at which growth is reduced by 50%
[12] = ATCC25923, read-out: MIC50 (μg/mL) S. aureus

SMILES	tubulin polymerization velocity v (tubulin)	Agar disk diffusion (μg/disk) S. aureus [1]	MIC50 [2]	MIC50 [3, 10]	Agar disk diffusion (μg/disk) MRSA [4]	MIC50 [5, 11]	Agar disk diffusion (μg/disk) VREF [6]	MIC50 [7, 11]	fold change in MIC50 versus chrysophaentin 1 ([8]; all four strains)	Agar disk diffusion (μg/disk) E. faecium [9]	MIC50 (μg/mL) E. faecium ([2]; microbroth dilution)	MIC50 [3, 12]	MIC50 (μg/mL) VREF [7, 11]	MIC50 [5]	MIC50 [7]	MIC50 (μg/mL) S. aureus [3, 11]	MIC50 (μg/mL) MRSA [5, 11]	potency relative to compound 7 [8]
COC(=O)Nc1nc2ccc(C(=O)c3cccs3)cc2[nH]1 [nocodazole, reference compound]	12 min⁻¹	–	–	–	–	–	–	–	–	–	–	–	–	–	–	–	–	–
CC(=O)O[C@H]1C(=O)[C@@]2(C)[C@H]([C@H](OC(=O)c3ccccc3)[C@]3(O)C[C@H](OC(=O)[C@H](O)[C@@H](NC(=O)c4ccccc4)c4ccccc4)C(C)=C1C3(C)C)[C@]1(OC(C)=O)CO[C@@H]1C[C@@H]2O [paclitaxel, reference compound]	80 min⁻¹	–	–	–	–	–	–	–	–	–	–	–	–	–	–	–	–	–
Oc1cc(O)c2c(c1)C/C(Cl)=C\Cc1cc(c(Br)cc1O)Oc1c(O)cc(cc1O)C/C(Cl)=C\Cc1cc(c(Br)cc1O)O2 [Compound 4, chrysophaentin 4]	–	25 μg/disk	> 50 µg/mL	> 25 µg/mL	25 μg/disk	19 ± 5.9 µg/mL (≈ 24.8 µM)	25 μg/disk	> 25 µg/mL	~12 fold	25 μg/disk	–	–	–	–	–	–	–	–
Oc1cc(O)cc(C/C(Cl)=C\Cc2cc(Oc3c(O)cc(C/C(Cl)=C\Cc4cc(O)c(Cl)cc4O)cc3O)c(Cl)cc2O)c1 [Compound 5, chrysophaentin 5]	–	25 μg/disk	> 25 µg/mL	–	10 μg/disk	8.9 ± 2.8 µg/mL (≈ 13.1 µM)	25 μg/disk	> 25 µg/mL	–	25 μg/disk	>25 µg/mL	10.5 ± 3.8 µg/mL (≈ 15.4 µM)	>25 µg/mL	–	–	–	–	–
Oc1cc(Cl)c2cc1C/C=C(/Cl)Cc1cc(O)c(c(O)c1Br)Oc1cc(c(O)cc1Cl)C/C=C(/Cl)Cc1cc(O)c(c(O)c1)O2 [Compound 8, chrysophaentin 8]	–	–	> 25 µg/mL	4 to 6 µg/mL (≈ 5.28 to 7.92 µM)	–	4 to 6 µg/mL (≈ 5.28 to 7.92 µM)	–	~9.5 µg/mL (≈ 12.5 µM)	–	–	–	–	–	–	–	–	–	–
Oc1cc(Cl)c2cc1C/C=C(/Cl)Cc1cc(O)c(c(O)c1)Oc1cc(c(O)cc1Br)C/C=C(/Cl)Cc1cc(O)c(c(O)c1)O2 [Compound 7, chrysophaentin 7]	–	NA (NA, no zone of inhibition observed at 25 μg/disk)	> 50 µg/mL	–	NA (NA, no zone of inhibition observed at 25 μg/disk)	–	NA (NA, no zone of inhibition observed at 25 μg/disk)	–	–	NA (NA, no zone of inhibition observed at 25 μg/disk)	–	16.6 ± 5.3 µg/mL (≈ 23 µM)	–	12.3 ± 3.1 µg/mL (≈ 17 µM)	24.6 ± 7.3 µg/mL (≈ 34 µM)	–	–	–
Oc1cc(Cl)c2cc1C/C=C(/Cl)Cc1cc(O)c(c(O)c1)Oc1cc(c(O)cc1Cl)C/C=C(/Cl)Cc1cc(O)c(c(O)c1)O2 [Compound 6, chrysophaentin 6]	–	10 μg/disk	> 25 µg/mL	4 to 6 µg/mL (≈ 5.9 to 8.85 µM)	10 μg/disk	4 to 6 µg/mL (≈ 5.9 to 8.85 µM)	10 μg/disk	~9.5 µg/mL (≈ 14 µM)	–	10 μg/disk	–	–	9.5 ± 3.0 µg/mL (≈ 14 µM)	–	–	5.3 ± 1.9 µg/mL (≈ 7.81 µM)	4.2 ± 1.2 µg/mL (≈ 6.19 µM)	at least 3 ×
